Measurements taken from patent US11286256B2, “Bicyclic inhibitors of histone deacetylase” (Alkermes, Inc., priority 2017, dated 2022).

What was measured:
[1] = molecular target: HDAC2 (Homo sapiens, UniProt Q92769); test: HDAC2 recombinant enzymatic assay; assay type: biochemical; set-up: purchased BPS Bioscience; conditions: 5 h pre-incubation, 5 nM enzyme; read-out: HDAC recombinant enzymatic IC50 HDAC2
Procedure: (§1) The following describes an assay protocol for measuring the deacetylation of a peptide substrate by the enzymes HDAC2 or HDAC1.
(§2) All recombinant human HDACs were purchased from BPS Bioscience. The substrate, FAM-TSRHK(AC)KL-CONH, was synthesized at NanoSyn. Final assay reactions contained 100 mM HEPES (pH 7.5), 50 mM KCl, 0.1% BSA, 0.01% Triton X-100, 1% DMSO, 1 uM substrate and 5 nM HDAC enzyme. Enzyme and compounds were pre-incubated at 25° C. for 5 hours and reactions were initiated by addition of substrate. 10 uL reactions were incubated for 17 hours at 25° C. and terminated by the addition of 40 uL of buffer containing 100 mM HEPES (pH 7.5), 0.1% BSA, 0.01% Triton X-100 and 0.05% SDS. Substrate and product peptides present in each sample were separated electrophoretically using the LabChip 3000 capillary electrophoresis instrument. Change in the relative fluorescence intensity of the substrate and product peaks reflects enzyme activity. Reaction progress was determined as the product to sum ratio (PSR):P/(S+P), where P is the peak height of the product peptide and S is the peak height of the substrate peptide. Reactions were performed in duplicate at 12 concentrations, (3× serial dilutions starting at 30 uM). IC50 values were calculated using a 4 Parameter Logistic Model.

[2] = system: human erythroid progenitors (CFU-E, BFU-E); test: Erythroid CFU assay in human bone marrow cells; assay type: cell-based; conditions: 10 μM, 14 days culture, human bone marrow cells
Procedure: Compounds were tested to evaluate the potential effects on human erythroid and myeloid progenitors using colony forming cell assays. Clonogenic progenitors of human erythroid (CFU-E, BFU-E), granulocyte-monocyte (CFU-GM) and multipotential (CFU-GEMM) lineages were assessed in a semi-solid methylcellulose-based media formulation containing rhlL-3 (10 ng/mL), rhGM-SCF (10 ng/mL), rhSCF (50 ng/mL) and Epo (3 U/mL).
Normal human bone marrow light density cells derived from normal bone marrow (NorCal Biologics, California) and qualified at ReachBio, were stored in the gaseous phase of liquid nitrogen (−152° C.) until required for the assay. On the day of the experiment, the cells were thawed rapidly, the contents of each vial was diluted in 10 mL of Iscove's modified Dulbecco's medium containing 10% fetal bovine serum (IMDM+10% FBS) and washed by centrifugation (approximately 1200 r.p.m. for 10 minutes, room temperature). The supernatant was discarded and the cell pellets resuspended in a known volume of IMDM+10% FBS. A cell count (3% glacial acetic acid) and viability assessment (trypan blue exclusion test) was performed for the bone marrow sample.
On the day of the experiment, the compounds were dissolved in DMSO to a stock concentration of 10 mM. Serial dilutions were prepared from the stock concentration to achieve concentrations of 2 and 0.4 mM. When added to the methylcellulose-based media at 1:1000 (v/v), the final test concentrations of 10, 2 and 0.4 μM were achieved. Additionally, 5-FU was evaluated at 1.0, 0.1 and 0.01 μg/mL.
Clonogenic progenitors of the human erythroid (CFU-E and BFU-E) and myeloid (CFU-GM) lineages were set up in the methylcellulose-based media formulations described above. All compounds were added to the medium to give the final desired concentrations (10, 2 and 0.4 μM). 5-Fluorouracil (Sigma Aldrich) was used as a positive control for progenitor proliferation (inhibition of colony growth) and was introduced to the human bone marrow cultures at 1.0, 0.1, and 0.01 μg/mL. Solvent control cultures (containing no compound but 0.1% DMSO) as well as standard controls (containing no compound and no DMSO) were also initiated.
Human myeloid and erythroid progenitor assays were initiated at 2.0×10^4 cells per culture. Following 14 days in culture, myeloid and erythroid colonies were assessed microscopically and scored by trained personnel. The colonies were divided into the following categories based on size and morphology: CFU-E, BFU-E, CFU-GM and CFU-GEMM.
The mean±one standard deviation of three replicate cultures was calculated for progenitors of each category (CFU-E, BFU-E, etc.). Two-tailed t-tests were performed to assess if there was a difference in the number of colonies generated between solvent control and treated cultures. Due to the potential subjectivity of colony enumeration, a p value of less than 0.01 is deemed significant. To calculate the concentration of 50% inhibition of colony growth (IC50) for each compound, a dose response curve was generated plotting the log of the compound concentration versus the percentage of control colony growth using XLfit software (IDBS). The concentration of 50% inhibition of colony growth (IC50) was calculated based on the sigmoid curve fit using Dose-Response, One-Site Model formula: y=A+[(B−A)/(1+((C/x)^D))], where A=the initial value (baseline response), B=maximum response, C=center (drug concentration that provokes a response halfway between A and B) and D=slope of the curve at midpoint. Further, plots and additional dose response curves were generated using GraphPad Prism 7.0.
Erythroid (CFU-E and BFU-E), myeloid (CFU-GM) and multi-potential (CFU-GEMM) colony enumeration was performed by trained personnel. The distribution of colony types as well as general colony and cellular morphology was analyzed. For statistical analysis colony numbers in compound treated cultures were compared to the solvent control cultures. […]

[3] = molecular target: T1, HDAC1 (Homo sapiens, UniProt Q13547); test: HDAC1 recombinant enzymatic assay; assay type: biochemical; conditions: 5 h pre-incubation, 5 nM enzyme; read-out: HDAC recombinant enzymatic IC50 HDAC1
T1 construct: purchased BPS Bioscience
Procedure: as §1, §2

Chain of HDAC2 (Q92769 whole entry): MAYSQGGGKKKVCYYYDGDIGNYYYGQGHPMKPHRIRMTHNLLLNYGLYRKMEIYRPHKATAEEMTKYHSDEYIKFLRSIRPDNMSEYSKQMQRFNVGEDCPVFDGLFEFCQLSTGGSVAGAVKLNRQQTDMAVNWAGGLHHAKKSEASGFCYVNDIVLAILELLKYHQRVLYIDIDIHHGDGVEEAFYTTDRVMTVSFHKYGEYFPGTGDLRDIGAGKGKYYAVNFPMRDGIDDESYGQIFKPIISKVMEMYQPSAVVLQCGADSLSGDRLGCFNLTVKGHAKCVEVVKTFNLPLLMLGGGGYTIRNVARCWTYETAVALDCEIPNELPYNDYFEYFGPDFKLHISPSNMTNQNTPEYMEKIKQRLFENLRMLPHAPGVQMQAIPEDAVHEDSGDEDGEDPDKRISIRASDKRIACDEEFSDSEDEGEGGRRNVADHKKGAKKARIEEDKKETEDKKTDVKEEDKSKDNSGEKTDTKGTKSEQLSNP
T1 sequence (Q13547 whole entry): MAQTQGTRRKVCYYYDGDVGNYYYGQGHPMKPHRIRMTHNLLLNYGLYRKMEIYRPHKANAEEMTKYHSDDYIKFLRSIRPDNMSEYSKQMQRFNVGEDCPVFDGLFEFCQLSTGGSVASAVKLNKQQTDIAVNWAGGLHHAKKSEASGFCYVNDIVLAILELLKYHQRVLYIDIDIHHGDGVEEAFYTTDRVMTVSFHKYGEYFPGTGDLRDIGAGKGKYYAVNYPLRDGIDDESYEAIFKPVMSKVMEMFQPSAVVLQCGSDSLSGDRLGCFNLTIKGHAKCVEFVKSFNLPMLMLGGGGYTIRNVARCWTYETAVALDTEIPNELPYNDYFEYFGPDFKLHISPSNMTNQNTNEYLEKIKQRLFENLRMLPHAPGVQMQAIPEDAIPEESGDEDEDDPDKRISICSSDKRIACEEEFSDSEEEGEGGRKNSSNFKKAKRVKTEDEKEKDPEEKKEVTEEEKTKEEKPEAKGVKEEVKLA

| Compound | IC50 [1] | CFU % Control remaining @ 10 μM Erythroid [2] | IC50 [3] |
| --- | --- | --- | --- |
| Nc1ccc(-c2ccc(F)cc2)cc1NC(=O)N1Cc2nccnc2C1 [Comparator A] | 142 nM | 0% | 27 nM |
| Nc1ccc(-c2ccc(F)cc2)nc1NC(=O)N1Cc2nccnc2C1 [Comparator B] | 475 nM | 9% | 119 nM |
| Nc1ccc(-c2cccs2)nc1NC(=O)N1Cc2nccnc2C1 [Comparator C] | 301 nM | 20% | 95 nM |
| Nc1ccc(-c2ccc(F)cc2)nc1NC(=O)N1Cc2cncnc2C1 [Comparator D] | 627 nM | 47% | 239 nM |
| Nc1ccc(-c2cccs2)nc1NC(=O)N1Cc2cncnc2C1 [Comparator E] | 511 nM | 54% | 142 nM |
| COCc1cc2c(cn1)CN(C(=O)Nc1nc(-c3ccc(F)cc3F)ccc1N)C2 [Compound 1] | 510 nM | 57% | 326 nM |
| Cc1ncc2c(n1)CN(C(=O)Nc1nc(-c3cccs3)ccc1N)C2 [Compound 2] | – | 27% | 133 nM |
